Series [1] is classed as in vitro ADME, SD rats. As to conditions: SD, rat, microsomes, 60 min, 5 μM.
Series [2] can be described thus: in vitro. Format: in vitro ADME, mice. The following applies: mouse, microsomes; for final amount remaining: 60 min, 5 μM.
A short description of series [3]: in vitro. Format: in vitro ADME, mice. As to conditions: mouse, microsomes; for amount remaining: 1 h, 5 μM.
Series [4] in a line: in vitro. The following applies: rhesus monkey, microsomes; for amount remaining: 1 h, 5 μM. Format: in vitro ADME, rhesus monkeys.
The format of series [5] is in vitro ADME, humans. The following applies: human, microsomes, 5 μM; for amount remaining: 1 h; for final amount remaining: 60 min. The protocol: The incubation mixtures were prepared following the instructions from the manufacturer of the metabolic stability kits and contained sagittatoside A, icariside I, baohuoside I, and icaritin, of which the final concentrations were 49, 50, 32 and 3.8 μg/mL. The final concentration of organic solvents in the incubation mixture was 1% (v/v). After preincubation for 5 min at 37 °C, metabolic reactions of phase I and II were both initiated by the addition of human liver microsomes (final concentration, 0.20 mg protein/mL). Phase I metabolism is mediated by the enzyme cytochrome P450 (CYP), and phase II metabolism is mediated by UDP-glucuronosyltransferase (UGT). The whole reaction process was performed under aerobic conditions. After 30 min, an equal volume of cold acetonitrile was added and vortexed for 1 min to terminate the reactions. Subsequently, 200 μL of the resulting solution was centrifuged at 3000 rpm and 4 °C for 10 min. Then, 100 μL of supernatant was dried at 40 °C with nitrogen gas, and the residue was redissolved in 100 μL with fresh medium to prepare for treating cells. Negative controls (incubation without substrate) were prepared in the same manner.
The incubation mixtures were also prepared following Section 2.4 and contained sagittatoside A, icariside I, baohuoside I, and icaritin, of which the final concentrations were 5.00 μM. After the mixtures were incubated separately in phase I or phase II metabolism systems for 5, 10, 15, 20, 30, 45 and 60 min, the reactions were terminated by adding an equal volume of cold acetonitrile (with 7 μM IS) and vortex mixing for 1 min. Subsequently, 200 μL of the resulting solution was centrifuged at 3000 rpm and 4 °C for 10 min. Then, 100 μL of supernatant was dried at 40 °C with nitrogen gas, and the residue was redissolved in 100 μL of 50% methanol to prepare the samples for HPLC–MS/MS detection. Time zero samples (prepared by first adding cold acetonitrile and then adding NADPH for phase I metabolism or NADPH and UDPGA for phase II metabolism) and negative controls (incubation without substrate) were prepared separately in the same manner.
HPLC analysis was performed on an AB Sciex ExionLC HPLC system (Santa Clara, CA, USA) equipped with an autosampler, a vacuum degasser unit, a quaternary pump, a diode array detector (DAD) and a column compartment. Samples were separated on an ACQUITY ΜPLC BEH C18 column (2.1 × 100 mm, 1.7 μm) connected to an ACQUITY ΜPLC BEH C18 precolumn (2.1 × 5 mm, 1.7 μm) at 40 °C. The mobile phases were water with 0.05% formic acid (A) and methanol-acetonitrile (v/v 1:1) with 0.05% formic acid (B), and the elution gradient was as follows: 70% A (0.00–1.00 min), 2% A (2.50–3.50 min), and 70% A (3.51–7.00 min). The flow rate was set at 0.23 mL/min, and the injection volume was 5 μL.
Electrospray ionization–mass spectrometry (ESI–MS) analyses were performed on an AB Sciex QTRAP 5500 (EG250911902) mass spectrometer (Santa Clara, CA, USA). Detection was performed with multiple reaction monitoring (MRM) in ESI negative ion mode. The spray voltage was set to −4500 V, the curtain gas was 25 psi, the collision gas was set to medium, both auxiliary gases 1 and 2 were used at 45 psi, and the heating temperature was 550 °C.
In accordance with the above HPLC–MS/MS analysis method, the content of each compound in the sample at each time point was measured. Then, using the substrate depletion method, the content of each compound in the time zero sample was set as 100%, and the percent residual substrate was calculated. The relationship between the natural logarithmic value of the percent residual substrate and time point was explored by linear regression using GraphPad Prism 5.0 software, and the slope (−k) was obtained. […]

A short description of series [6]: in vitro. Format: in vitro ADME, beagle dogs. As to conditions: beagle, dog, microsomes; for amount remaining: 1 h, 5 μM.

Where two headings read alike, the source gives them in different places.

On to `COc1ccc(-c2oc3c(CC=C(C)C)c(O)cc(O)c3c(=O)c2O[C@@H]2O[C@@H](C)[C@H](O)[C@@H](O)[C@H]2O)cc1` [baohuoside I], for which the final amount remaining in series [1] is listed as 1.55 ± 0.33%; in series [2], 11.64 ± 1.63%; in series [5], 5.56 ± 0.60%. In addition, the amount remaining in series [3] worked out at 28.58 ± 4.12%; in series [4], 12.41 ± 1.02%; in series [5], 20.74 ± 0.39%; in series [6] it was 11.74 ± 0.78%. Besides, the CLint scaled at 5 μM in series [6] stood at 27.6 mL/min/kg.
`COc1ccc(-c2oc3c(CC=C(C)C)c(O[C@@H]4O[C@H](CO)[C@@H](O)[C@H](O)[C@H]4O)cc(O)c3c(=O)c2O)cc1` [icariside I]: the final amount remaining in series [1] is on record as 22.71 ± 10.94%; in series [2], 12.18 ± 0.64%; in series [5] it was 45.62 ± 1.52%. The CLint scaled at 5 μM is 79.3 mL/min/kg in series [2], 80.4 mL/min/kg in series [3], 38.1 mL/min/kg in series [4] and 25.2 mL/min/kg in series [6]. Further, the amount remaining in series [3] was determined as 7.69 ± 1.17%; in series [4] it was 6.50 ± 0.49%; in series [5], 10.08 ± 0.43%; in series [6], 34.93 ± 2.83%.
With `COc1ccc(-c2oc3c(CC=C(C)C)c(O)cc(O)c3c(=O)c2O)cc1` [icaritin], the figures for the final amount remaining in series [1], in series [2] and in series [5] were 19.44 ± 0.36%, 7.73 ± 0.17% and 20.51 ± 0.97%, respectively. The amount remaining in series [3] is 28.55 ± 0.04%; in series [4] it was 24.73 ± 2.38%; in series [5] it was 36.23 ± 1.12%; in series [6], 16.75 ± 0.20%.

For the origin of these results see PMC10975178, “Evaluation on the Potential for Hepatotoxic Components from Herba Epimedii to Induce Apoptosis in HepG2 Cells and the Analysis of the Influence of Metabolism in Liver Microsomes” (Molecules, 2024).
